Assays:
COX-2 = COX-2 protein in IL-1β-induced human conjunctival fibroblasts (Western blot); format: cell-based; details: 2 h pretreatment, then 24 h with IL-1β
Description: Cells were washed with ice-cold PBS and lysed in cell lysis buffer (62.5 mM Tris-HCl, pH 6.8, 2% sodium dodecyl sulfate (SDS), 10% glycerol). Cells were sonicated, and centrifuged at 12.000 rpm and protein concentration was determined using the Micro BCA protein assay kit. Proteins in aliquots of cell lysate (˜20 μg protein) were separated by SDS-polyacrylamide electrophoresis (SDS-PAGE) on 10% gels and transferred to PVDF membranes. Membranes were blocked with 5% BSA and exposed to mouse anti-COX-2 antibody (Caymen). The blots were washed, and exposed to horseradish peroxidase-conjugated anti-mouse secondary antibody. After washing, blots were incubated in ECL (enhanced chemiluminescence) solutions and chemiluminescent bands were visualized using the FluorChem imaging system (AlphaInnotech, San Leandro, Calif.). Blots were then stripped and re-probed for glyceraldehyde 3-phosphate dehydrogenase (GAPDH) (Zymed) antibody as loading controls. The experiment was repeated 3 times. Analysis of Western blot band density for COX-2 and GAPDH in captured digital images was done using the Alpha-Innotech Chemi-Imager software (Alpha Innotech; San Leandro, Calif.). Levels of COX-2 protein were normalized to GAPDH.

[1] = tested on: myocilin protein in CM of monkey TM cells; experiment: Myocilin protein in conditioned media of monkey TM cells (Western blot); format: cell-based, rhesus monkeys (Macaca mulatta); details: for Effect on myocilin concentrations in CM: 3 to 300 nM, second 48-hour treatment period
Description: All animal procedures were in accordance with the ARVO (Association for Research in Vision and Ophthalmology) resolution on animal care. Eyes from freshly killed, healthy rhesus monkeys (Macaca mulatta), obtained from Lonza (Walkersville, Md.), were transported in CO2-independent medium on ice, and processed approximately 40 hours post-enucleation. Following removal of iris, lens, and the bulk of the ciliary body, opercula (an anatomical feature of monkey TM) were stripped from anterior segment quadrants. Using fine scissors, strips of TM were excised, and subdivided TM fragments were explanted to multiwell plates containing growth medium (described below) and incubated with Cytodex-3 gelatin-coated beads (Sigma Chemical Company, St. Louis, Mo.). The beads attach to the explants within hours and provide additional substrate area for out-migration of cells. Proliferating TM cells colonize additional beads and also “spill” onto the tissue culture plastic and form colonies. After several days, the original TM explants and beads were transferred to new wells, generating additional primary cultures. Subconfluent monolayers of cells on tissue culture plastic were passed from 12-well plates to 35- or 60-mm dishes using a Collagenase-Dispase (Roche Applied Bioscience, Indianapolis, Ind.). Second- or third-passage subcultures were finally harvested enzymatically as above, and the cells were counted and cryopreserved in liquid nitrogen.
For each study, up to nine TM cell strains, each derived from an individual monkey, were tested separately. Cells were thawed and seeded into 12- or 48-well clusters (Falcon, BD Biosciences; 150,000 and 30,000 cells/well, respectively) in proliferation medium. When cells were 75% to 90% confluent proliferation medium was replaced by a 5:4 mixture of HESFM and Dulbecco's MEM, respectively, supplemented with 10% FBS, with added taurine, ascorbic acid phosphate, glutathione, and antibiotic as for proliferation medium (above), and with 2.72 g/L glucose and 1.72 g/L fructose. At confluence, the medium was changed to Dulbecco's MEM, containing 10% FBS^40, ascorbic acid phosphate, antibiotic, 2.72 g/L glucose and 1.72 g/L fructose. Cells were maintained as stable, confluent monolayers in this latter medium for 4 to 7 days before experimental treatments commenced.
All treatments, including media for vehicle control samples, contained a final DMSO concentration of 0.1% (v/v) across the concentration ranges selected. Treatments lasted 96 hours, with one exchange of medium on the third treatment day. The final 48-hr conditioned media (“CM”) samples were collected in their entirety (0.5 ml), centrifuged briefly to remove particulates, aliquoted, and stored at −20° C. until thawed for analysis.
Undiluted CM was combined with denaturing 4× sample buffer containing 2% SDS, and samples were loaded at equivalent protein content onto 4-20% Tris-HCl polyacrylamide gels (BioRad, Hercules, Calif.). After electrophoresis, proteins underwent wet transfer to […] nitrocellulose (BioRad) for immunoblotting. The filters were blocked with 5% (w/v) nonfat dry milk (BioRad) in Tris-buffered saline plus 0.02% (v/v) Tween-20 (“TBST”; Tween-20 from Calbiochem, San Diego, Calif.), and incubated with a 1:2000 dilution (from 200 μg/ml) of goat anti-recombinant human myocilin antibody (R&D Systems, Minneapolis, Minn.) in blocking buffer, overnight at 4° C. […]

SMILES	Production of COX-2 by IL-1β-induced HConF (COX-2)	Levels of myocilin protein released by cultured monkey TM cells, compared to DEX [1]	Effect on myocilin concentrations in CM [1]	Maximal efficacy for myocilin accumulation in CM, relative to DEX treatment ([1]; computed across all nine TM cells strains)	Activity on myocilin gene expression ([1]; monkey TM cells, compared with DEX at high doses)
Cc1ccc2c(NCC(O)(CC(C)(C)c3cc(F)cc4c3OCC4)C(F)(F)F)cccc2n1 (stereo not drawn) [BOL-303242-X]	successfully inhibits	significantly lower levels	increased myocilin concentrations in a dose-dependent manner	about 50%	partial agonist activity
C[C@@H]1C[C@H]2[C@@H]3CCC4=CC(=O)C=C[C@]4(C)[C@@]3(F)[C@@H](O)C[C@]2(C)[C@@]1(O)C(=O)CO [dexamethasone, reference compound]	–	–	increased myocilin concentrations in a dose-dependent manner	–	–
